According to patent US5567688A, “L-nucleosides for the treatment of hepatitis B-virus” (priority 1995, dated 1996):
Like-named read-outs stand apart in the source and are kept apart here.

Key:
EBV = test: Inhibition of EBV production in H1 cells (bioassay, EBV DP activity in superinfected Raji cells); type: cell-based; conditions: for IC90: human gammaherpesvirus 4, Raji, 120 h
Experimental: (§1) H1 cells were maintained in […] growth for two days prior to the initiation of treatment. The cells were centrifuged at 600 g for 10 min. at room temperature to separate them from the medium containing pre-existing virus particles. The H1 cells were seeded in 24 well plates at a density of 1×10^5 cells per well in 2 ml of fresh medium with or without drug and incubated at 37° C. for 5 days. The medium containing virion was saved and used for evaluating the inhibitory effect of drugs on virus production and infectivity by use of a bioassay. The virion were pelleted from the cell free medium by centrifugation at 45,000 rpm for 90 min. in a SW-50 Ti rotor (Beckman). The virion were resuspended in 1 ml growth medium and then used to infect 1×10^6 Raji cells for 48 hours. Since the level of EBV DP activity in Raji cells post superinfection is proportional to the number of virions added (unpublishedresult), the EBV specific DP activity induced was able to be measured. The inhibitory drug effect Was calculated by comparing the EBV DP activity to multiple dilution controls.
Inhibitory effect of compounds on EBV: The CD50 was performed by
exposing H1 cells to different concentrations of the compounds in normal
growth medium at 37° C. for 72 hours; the cells were then counted
and compared with controls. H1 cells were treated for 5 days and the
ID90 was determined by bioassay.

mitochondrial DNA = test: Mitochondrial DNA content in H1 cells (slot blot assay); type: cell-based, human; conditions: 1 mM, 6 days
Experimental: as §1
Slot Blot Assay--The amount of mitochondrial DNA was measured by the slot blot method (2). […] The amount of mitochondrial DNA in the treated and non-treated H1 cells was quantified by densitometer (LKB Ultroscan XL).

[1] = Cytotoxicity in CEM cells (CD50); type: cell-based; conditions: human
[2] = Cytotoxicity in H1 cells (cell count); type: cell-based; conditions: 37° C., read-out: CD50
[3] = Cytotoxicity in MT2 cells (CD50); type: cell-based; conditions: human
HBV = test: Inhibition of HBV DNA in 2.2.15 cells (Southern analysis); type: cell-based, HBV (human hepatoma 2.2.15 cells); conditions: for Therapeutic Index (DC50/ID50): HBV, CD50 / anti-HBV ID50; for IC50: Hepatitis B virus, 144 h, 2.2.15 cells, 6-day treatment, 50% inhibition of the DNA, read-out: Anti-HBV Activity ID50
Experimental: Human hepatoma cells with HBV (2.2.15 cells) were used in the assay. These cells were grown to confluence in minimal essential medium with 10% fetal bovine serum. The media was changed at 3-day intervals. At confluence the treatment with the drugs was initiated and then continued for three days. Another addition of the same concentration of the drug was given at this point after removal of the media from the cultures and cultures maintained for an additional period of 3 days. The medium after the 6-day treatment was harvested and the viral particles precipitated by the polyethylene glycol method. The particles were subsequently digested and then processed for Southern analysis. The blots were hybridizied to an HBV-specific probe and vital DNA amounts assessed in comparison to DNA levels from cultures not treated with the drugs. The genomic DNA was digested with Hind III and subjected to Southern analysis. Levels of the episomal DNA were determined in relation to the integrated HBV DNA. The drug concentrations that cause 50% inhibition of the DNA (ID50) as compared to the controls were calculated.

[4] = Cytotoxicity (CD50) of Table I, cell line not given; type: cell-based
[5] = EBV, H1 cells treated for 5 days, bioassay, read-out: ID90 (the source's name)

Nc1nc2c(ncn2COC(CO)CO)c(=O)[nH]1 [DHPG]
IC90 (EBV; [5]): 5 ± 1 µM

Cc1cn([C@H]2O[C@@H](CO)[C@H](O)[C@H]2F)c(=O)[nH]c1=O [L-FMAU, N1-(2'-Deoxy-2'-fluoro-β-L-arabinofuranosyl)-thymine]
Inhibition of mitochondrial DNA content in H1 cells (mitochondrial DNA): No inhibition | CC50 [1]: > 100 µM | Therapeutic Index (CD50/ID90) (EBV; EBV, H1 cells): 182 | IC90 (EBV; [5]): 5 ± 0.8 µM | CC50 at 72 h [2]: 913 ± 70 µM | CC50 [3]: 100 µM | Therapeutic Index (DC50/ID50) (HBV): 9130 | CC50 [4]: 913 ± 70 µM

CCc1cn([C@H]2O[C@@H](CO)[C@H](O)[C@H]2F)c(=O)[nH]c1=O [L-FEAU, N1-(2'-Deoxy-2'-fluoro-β-L-arabinofuranosyl)-5-ethyluracil]
CC50 [1]: > 100 µM | Therapeutic Index (CD50/ID90) (EBV; EBV, H1 cells): 20 | IC90 (EBV; read-out: ID90): 20 µM | CC50 at 72 h [2]: > 400 µM | CC50 [3]: 100 µM | Therapeutic Index (DC50/ID50) (HBV): > 80 | IC50 (HBV): > 5 µM | CC50 [4]: > 400 µM

Nc1nc(=O)n([C@H]2O[C@@H](CO)[C@H](O)[C@H]2F)cc1I [L-FIAC, N1-(2'-Deoxy-2'-fluoro-β-L-arabinofuranosyl)-5-iodocytosine]
Inhibitory effect on EBV (in words) (EBV; EBV, H1 cells, up to 100 μM): inactivity up to 100 μM

Cc1cn([C@@H]2O[C@H](CO)[C@@H](O)[C@@H]2F)c(=O)[nH]c1=O [D-FMAU]
CC50 [1]: 10 µM | Therapeutic Index (CD50/ID90) (EBV; EBV, H1 cells): < 100 | IC90 (EBV; [5]): 0.1 µM | CC50 at 72 h [2]: < 10 µM | CC50 [3]: 8 to 9 µM | Therapeutic Index (DC50/ID50) (HBV): < 5 | CC50 [4]: < 10 µM

CCc1cn([C@@H]2O[C@H](CO)[C@@H](O)[C@@H]2F)c(=O)[nH]c1=O [D-FEAU]
CC50 [1]: 90 µM | Therapeutic Index (CD50/ID90) (EBV; EBV, H1 cells): > 400 | IC90 (EBV; [5]): 1 µM | CC50 at 72 h [2]: > 400 µM | CC50 [3]: 100 µM | Therapeutic Index (DC50/ID50) (HBV): > 80 | IC50 (HBV): 5 µM | CC50 [4]: > 400 µM

Nc1nc2c(ncn2COCCO)c(=O)[nH]1 [ACV]
IC90 (EBV; [5]): 50 ± 8 µM

O=C(O)P(=O)(O)O [PFA]
IC90 (EBV; [5]): 75 ± 5 µM

Nc1nc2c(ncn2CCC(CO)CO)c(=O)[nH]1 [PCV]
IC90 (EBV; [5]): 20 ± 2 µM
